{"source": "patent EP0628039B1", "about": "“2,3,4,5-TETRAHYDRO-1H-3-BENZAZEPINES AND PHARMACEUTICALLY ACCEPTABLE ACID ADDITION SALTS THEREOF” (NOVO NORDISK A/S, priority 1992, dated 1993)", "biological_target": "T1, dopamine D1 receptor (Rattus norvegicus, UniProt P18901)", "T1 construct": "homogenates from rat striatum; from tissue; host or cells: rat striatum homogenate", "T1 sequence (P18901 whole entry)": "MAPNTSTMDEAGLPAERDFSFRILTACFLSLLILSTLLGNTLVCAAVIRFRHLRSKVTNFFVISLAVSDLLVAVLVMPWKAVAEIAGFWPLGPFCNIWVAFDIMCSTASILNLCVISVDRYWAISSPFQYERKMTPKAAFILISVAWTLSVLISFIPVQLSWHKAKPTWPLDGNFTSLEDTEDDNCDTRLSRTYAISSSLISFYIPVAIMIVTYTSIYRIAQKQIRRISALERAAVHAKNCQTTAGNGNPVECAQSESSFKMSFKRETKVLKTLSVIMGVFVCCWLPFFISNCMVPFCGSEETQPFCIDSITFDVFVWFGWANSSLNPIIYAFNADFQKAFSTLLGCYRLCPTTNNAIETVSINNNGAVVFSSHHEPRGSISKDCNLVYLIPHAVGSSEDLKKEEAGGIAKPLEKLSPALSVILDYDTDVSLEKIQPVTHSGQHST", "assay": "Binding to dopamine D1 receptor in homogenates from rat striatum", "note": "pIC50: −log10 of the molar value. Read-outs that look alike come from different tables or passages of the source."}
{"smiles": "CN1CCc2cc(Cl)c(O)cc2C(c2cc(Br)cc3c2OCC3)C1", "note": "(single isomer, unassigned; (+)) [Example 1, (+) 8-Chloro-5-(5-bromo-2,3-dihydrobenzofuran-7-yl)-7-hydroxy-3-methyl-2,3,4,5-tetrahydro-1H-3-benzazepine]", "values": [{"measurement": "pIC50", "result": 9.15}]}
{"smiles": "CN1CCc2cc(Cl)c(O)cc2C(c2c(Cl)c(Cl)cc3c2OCC3)C1", "note": "(single isomer, unassigned; (+)) [Example 3, (+)8-Chloro-5-(5,6-dichloro-2,3-dihydrobenzofuran-7-yl)-7-hydroxy-3-methyl-2,3,4,5-tetrahydro-1H-3-benzazepine]", "values": [{"measurement": "IC50", "setting": "homogenates from rat striatum, read-out: IC50 (nM) Dopamine D1 receptor", "result": 0.9, "unit": "nM"}]}
